Test results: US10030016B2 (Sunesis Pharmaceuticals, Inc., priority 2009, dated 2018)
Where a name gives a salt, the structure may show the parent alone. Read-outs that look alike come from different tables or passages of the source.

How the values were obtained:
PDK1 = PDK1 (Homo sapiens (Human), UniProt O15530); experiment: PDK1 kinase assay (coupled PDK1/AKT/FAM-crosstide assay, IMAP fluorescence polarization); format: biochemical
Summary of the method: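 GST-tagged human PDK1 (aa 51-359, 0.75 nM) from insect cells activated unphosphorylated GST-AKT2 (aa 140-467–PIFtide fusion, 10 nM), which phosphorylated 100 nM FAM-crosstide; 40 μM ATP, pH 7.2 Tris/MgCl2, 30 min at 25° C. IMAP fluorescence polarization read-out; ΔmP versus compound concentration fitted with a 4-parameter curve.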

[1] = tested on: phospho-akt (Thr308) in PC-3 cells; experiment: Inhibition of phospho-akt (Thr308) in PC-3 cells, MSD phospho-akt 308 ELISA kit; format: cell-based; settings: 2 hours, no serum, read-out: EC50
Summary of the method: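 Read-out is MSD electrochemiluminescence of Akt phosphorylated at Thr308 in lysates of PC-3 cells treated 2 h with compound in serum-free medium. Wortmannin at 5 μM defined the low control and DMSO the high control.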

[2] = inhibition of phospo-PDK1 in vitro
[3] = Homo sapiens, inhibition of P308 Akt in PC-3 cells, MSD
[4] = Homo sapiens, inhibition of P308 Akt in PC-3 cells using MSD
[5] = Homo sapiens, PC-3, 2 h, inhibition of P308 Akt in PC-3 cells, MSD

Chain of PDK1 (O15530 51-359): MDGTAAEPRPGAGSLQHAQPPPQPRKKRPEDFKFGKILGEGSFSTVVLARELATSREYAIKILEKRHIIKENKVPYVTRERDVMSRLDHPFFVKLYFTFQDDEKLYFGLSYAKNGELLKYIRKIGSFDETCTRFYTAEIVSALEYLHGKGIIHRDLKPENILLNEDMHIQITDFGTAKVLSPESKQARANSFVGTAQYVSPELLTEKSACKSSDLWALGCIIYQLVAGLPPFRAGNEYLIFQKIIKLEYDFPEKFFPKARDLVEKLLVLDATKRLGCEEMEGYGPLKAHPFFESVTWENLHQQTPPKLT

Row | Compound | IC50 (PDK1; [2]) [µM] | EC50 [1, 3] [µM] | IC50 (PDK1; inhibition of PDK1 in vitro) [µM] | EC50 [1, 4] [µM] | also measured
1 | CN(C)C(=O)c1cnc(NCc2ccc(-c3ccc4ncnc(N)c4c3)s2)c(C(=O)NCc2ccc(F)c(F)c2)c1 [Example 7.24.4, 2-({[5-(4-aminoquinazolin-6-yl)thiophen-2-yl]methyl}amino)-N^3-(3,4-difluorobenzyl)-N^5,N^5-dimethylpyridine-3,5-dicarboxamide] | < 0.1 | < 1 | – | – | –
2 | Nc1ncnc2c1c(-c1ccc(CNc3ncc(C(F)(F)F)cc3C(=O)NCc3ccc(F)c(F)c3)cc1)cn2CCO [Example 333, 2-(4-(4-amino-7-(2-hydroxyethyl)-7H-pyrrolo[2,3-d]pyrimidin-5-yl)-benzylamino)-N-(3,4-difluorobenzyl)-5-(trifluoromethyl)nicotinamide] | – | – | < 0.1 | < 1 | –
3 | C[C@H](NC(=O)c1cc(C#N)cnc1NCc1ccc(-c2cnc3[nH]nc(N)c3n2)cc1)c1ccc(F)cc1 [Example 183, 2-[4-(3-Amino-1H-pyrazolo [3,4-b]pyrazin-5-yl)-benzylamino]-5-cyano-N-[(S)-1-(4-fluoro-phenyl)-ethyl]-nicotinamide] | – | – | < 0.1 | < 1 | –
4 | Nc1ncnc2ccc(-c3ccc(CNc4ncc(C5COC5)cc4C(=O)NCc4ccc(F)c(F)c4)s3)cc12 [Ex. 8.8.4, 2-((5-(4-aminoquinazolin-6-yl)thiophen-2-yl)methylamino)-N-(3,4-difluorobenzyl)-5-(oxetan-3-yl)nicotinamide] | < 0.1 | < 1 | – | – | –
5 | C[C@H](NC(=O)c1cc(C#N)cnc1NCc1ccc(-c2cnc(N)c(CCCCN3CCOCC3)n2)cc1)c1ccc(F)cc1 [Example 89, 2-{4-[5-Amino-6-(4-morpholin-4-yl-butyl)-pyrazin-2-yl]-benzyl-amino}-5-cyano-N-[(S)-1-(4-fluoro-phenyl)-ethyl]-nicotinamide] | – | – | < 0.1 | < 1 | –
6 | O=C(NCc1ccc(F)cc1)c1cccnc1NCc1ccc(-c2cnc3[nH]c(=O)[nH]c3c2)cc1 [Example 360, N-(4-fluorobenzyl)-2-(4-(2-oxo-2,3-dihydro-1H-imidazo [4,5-b]pyridin-6-yl)benzyl-amino)nicotinamide] | – | – | < 0.1 | < 1 | –
7 | Nc1ncnc2c1c(-c1ccc(CNc3ncc(C(F)(F)F)cc3C(=O)Nc3ccc(F)cc3)cc1)cn2CCCCO [Example 404, 2-(4-(4-amino-7-(4-hydroxybutyl)-7H-pyrrolo [2,3-d]pyrimidin-5-yl)benzylamino)-N-(4-fluorophenyl)-5-(trifluoromethyl)nicotinamide] | – | – | < 0.1 | 1 to 10 | –
8 | C[C@H](NC(=O)c1cc(C#N)cnc1NCc1ccc(-c2cnc(N)c(C(=O)NCCCS(C)(=O)=O)n2)cc1)c1ccc(F)cc1 [Example 208] | – | – | < 0.1 | < 1 | –
9 | C[C@H](NC(=O)c1cc(I)cnc1NCc1ccc(-c2ccc3ncnc(N)c3c2)s1)c1ccc(F)c(F)c1 [Ex. 7.21.1, 2-({[5-(4-aminoquinazolin-6-yl)thiophen-2-yl]methyl}amino)-N-[(1S)-1-(3,4-difluorophenyl)ethyl]-5-iodopyridine-3-carboxamide] | 0.1 to 1 | < 1 | – | – | –
10 | N#Cc1cnc(NCc2ccc(-c3cnc4[nH]nc(N)c4c3)cc2)c(C(=O)Nc2ccc(F)cc2)c1 [Example 35, 2-(4-(3-amino-1H-pyrazolo[3,4-b]pyridin-5-yl)benzylamino)-5-cyano-N-(4-fluorophenyl) nicotinamide] | < 0.1 | < 1 | – | – | –
11 | C[C@H](NC(=O)c1nc(C#N)cnc1NCc1ccc(-c2cnc(N)c(O[C@H]3CCNC3)n2)cc1)c1ccc(F)c(F)c1 [Example 164, 3-{4-[5-Amino-6-((S)-pyrrolidin-3-yloxy)-pyrazin-2-yl]-benzylamino}-6-cyano-pyrazine-2-carboxylic acid [(S)-1-(3,4-difluoro-phenyl)-ethyl]-amide] | – | – | < 0.1 | < 1 | –
12 | Nc1n[nH]c2ncc(-c3ccc(CNc4ncc(C(F)(F)F)cc4C(=O)N[C@@H](CO)c4ccc(Br)cc4)cc3)cc12 [Example 283, (R)-2-(4-(3-amino-1H-pyrazolo [3,4-b]pyridin-5-yl)benzylamino)-N-(1-(4-bromophenyl)-2-hydroxyethyl)-5-(trifluoromethyl)nicotinamide] | – | – | > 5 | 1 to 10 | –
13 | CC(C)Oc1cc(CNc2ncccc2C(=O)NCc2ccc(F)c(F)c2)cc(-c2c[nH]c3ncc(C(=O)NC4CC4)cc23)c1 [Example 4.1.3, N-cyclopropyl-3-{3-[({3-[(3,4-difluoro-benzyl)carbamoyl]pyridin-2-yl}amino)methyl]-5-(propan-2-yloxy)phenyl}-1H-pyrrolo[2,3-b] pyridine-5-carboxamide] | < 0.1 | < 1 | – | – | –
14 | O=C(NCc1ccc(F)c(F)c1)c1cccnc1NCc1ccc(-c2cnc3[nH]ccc3c2)nc1 [Example 328] | – | – | < 0.1 | > 10 | –
15 | C[C@H](NC(=O)c1cc(C#N)cnc1NCc1ccc(-c2nn(C)c3ncnc(N)c23)cc1)c1ccc(F)cc1 [Example 98, (S)-2-(4-(4-amino-1-methyl-1H-pyrazolo[3,4-d]pyrimidin-3-yl)benzylamino)-5-cyano-N-(1-(4-fluorophenyl)ethyl)nicotinamide] | – | – | < 0.1 | 1 to 10 | –
16 | C[C@H](NC(=O)c1cc(C#N)cnc1NCc1ccc(-c2cnc(NCCO)cn2)cc1)c1ccc(F)cc1 [Example 227, 5-Cyano-N-[(S)-1-(4-fluoro-phenyl)-ethyl]-2-{4-[5-(2-hydroxy-ethylamino)-pyrazin-2-yl]-benzylamino}-nicotinamide] | – | – | 0.1 to 1 | 1 to 10 | –
17 | CNC(=O)c1cc(S(=O)(=O)N2CCN(C)CC2)cnc1NCc1ccc(-c2ccc3ncnc(N)c3c2)s1 [Example 8.6.12, 2-(((5-(4-aminoquinazolin-6-yl)thiophen-2-yl)methyl)amino)-N-methyl-5-(4-methylpiperazin-1-ylsulfonyl)nicotinamide] | > 5 | > 10 | – | – | –
18 | Nc1n[nH]c2ncc(-c3ccc(CNc4ncc(C(F)(F)F)cc4C(=O)Nc4ccc(F)cc4)cn3)cc12 [Example 57, 2-(((6-(3-amino-1H-pyrazolo[3,4-b]pyridin-5-yl)pyridin-3-yl)methyl)amino)-N-(4-fluorophenyl)-5-(trifluoromethyl)nicotinamide] | – | – | < 0.1 | < 1 | –

Continued, in another order:

Row | IC50 (PDK1; [2]) [µM] | EC50 [1, 3] [µM] | IC50 (PDK1; inhibition of PDK1 in vitro) [µM] | EC50 [1, 4] [µM] | Compound | also measured
19 | > 5 | > 10 | – | – | Nc1ncnc2ccc(-c3ccc(CNc4ncccc4C(=O)Nc4cccc5cccnc45)s3)cc12 [Example 3.32, 2-({[5-(4-aminoquinazolin-6-yl)thiophen-2-yl]methyl}amino)-N-(quinolin-8-yl)pyridine-3-carboxamide (TFA salt)] | –
20 | < 0.1 | 1 to 10 | – | – | C[C@H](NC(=O)c1cccnc1N[C@@H](COc1ccc2c(c1)[nH]c(=O)n2C)c1ccccc1)c1ccc(F)c(F)c1 [Example 16.13, N—((S)-1-(3,4-difluorophenyl)ethyl)-2-((R)-2-(1-methyl-2-oxo-2,3-dihydro-1H-benzo[d]imidazol-5-yloxy)-1-phenylethylamino)nicotinamide] | –
21 | 1 to 5 | – | – | – | C[C@H](NC(=O)c1cccnc1NCc1ccc(-c2ccn3ncnc3c2)s1)c1ccc(F)cc1 [Example 2.5, N-[(1S)-1-(4-fluorophenyl)ethyl]-2-({[5-([1,2,4]triazolo[1,5-a]pyridin-7-yl)thiophen-2-yl)methyl}amino)pyridine-3-carboxamide] | EC50 [1, 5]: > 10 µM
22 | > 5 | 1 to 10 | – | – | Nc1ncnc2ccc(-c3ccc(CNc4ncccc4C(=O)N4CCc5ccccc5C4)s3)cc12 [Example 3.34, 2-({[5-(4-aminoquinazolin-6-yl)thiophen-2-yl]methyl}amino)-pyridin-3-yl](3,4-dihydroiso-quinolin-2(1H)-yl)methanone (TFA salt)] | –
23 | < 0.1 | < 1 | – | – | C[C@H](NC(=O)c1cccnc1NCCOc1ccc2c(c1)NC(=O)/C2=C\c1cnc[nH]1)c1ccc(F)c(F)c1 [Example 19.2, (S,Z)-2-(2-(3-((1H-imidazol-5-yl)methylene)-2-oxoindolin-6-yloxy)ethylamino)-N-(1-(3,4-difluorophenyl)ethyl)nicotinamide] | –
24 | < 0.1 | – | – | – | C[C@H](NC(=O)c1cccnc1NCc1cccc(-c2c[nH]c3ncnc(N)c23)c1)c1ccc(F)cc1 [Example 2.29, (S)-2-(3-(4-amino-7H-pyrrolo[2,3-d]pyrimidin-5-yl)benzylamino)-N-(1-(4-fluorophenyl)ethyl) nicotinamide] | EC50 ([1]; inhibition of P308 Akt in PC-3 cells, MSD): 1 to 10 µM
25 | < 0.1 | 1 to 10 | – | – | Nc1ncnc2ccc(-c3ccc(CNc4nccnc4C(=O)NCc4ccc(F)c(F)c4)s3)cc12 [Ex. 10.1] | –
26 | > 5 | > 10 | – | – | CN(c1ncnc2ccc(-c3ccc(CNc4ncccc4C(=O)NCc4ccc(F)c(F)c4)s3)cc12)C1CCCCC1 [Example 4.21, 2-(((5-(4-(cyclohexyl (methyl)amino)quinazolin-6-yl)thiophen-2-yl)methyl)amino)-N-(3,4-difluorobenzyl) nicotinamide] | –
27 | 1 to 5 | – | – | – | Nc1ncnc2ccc(-c3ccc(CNc4ncccc4C(=O)Nc4cc(F)cc(F)c4)s3)cc12 [Example 3.85, 2-({[5-(4-aminoquinazolin-6-yl)thiophen-2-yl]methyl}amino)-N-(3,5-difluorophenyl)-pyridine-3-carboxamide (TFA salt)] | EC50 [1, 5]: > 10 µM
28 | < 0.1 | < 1 | – | – | C[C@H](NC(=O)c1cn(-c2ccccn2)nc1NCc1ccc(-c2ccc3ncnc(N)c3c2)s1)c1ccc(F)c(F)c1 [Ex. 11.3] | –
